In US20250382337A1 (UNIVERSITY OF MIAMI, priority 2022, published 2025):

System: SCI pain
Conditions: in vivo

Q: With `NCC1(CC(=O)O)CCCCC1` [gabapentin] as the molecule, how does the “place preference in GFP (control AAV) SCI animals” value read?
A: induced place preference
